Results on 2 compounds are retold here after US20110318768A1, “METHOD FOR DETERMINING SENSITIVITY OF TUMOR CELLS TO TYROSINE KINASE INHIBITOR AND COMPUTER PROGRAM PRODUCT” (SYSMEX CORPORATION, priority 2010, published 2011).

Holding throughout (experiment): Tyrosine kinase activity inhibition rate in cell membrane fraction (Poly-Glu4-Tyr substrate)
Format in all cases: biochemical

Test [1] deals with tyrosine kinase in cell membrane fraction of MDA-MB-468. The following applies: 25 μM kinase inhibitor, 25 μM ATP. How it is done:
(§1) Breast cancer cell lines shown in Table 3 were cultured in a 150 mm dish so as to be about 80% confluent, the cells were recovered using PBS and a scraper, and a cell pellet was obtained by centrifugal operation (900×g, for 5 minutes, at 4° C.). The pellet was frozen with liquid nitrogen and stored at −80° C. until preparation of the measurement sample.
(§2) 500 μl of NP40 (−) solubilized buffer (20 mM HEPES (pH 7.4)), (w/v) % glycerol, 0.2% protease inhibitor cocktail (#P8340: Sigma-Aldrich (product composition: 104 mM AEBSF, 80 μM aprotinin, 4 mM bestatin, 1.4 mM E-64, 2 mM leupeptin, 1.5 mM Pepstatin A), 50 mM NaF and 200 μM Na3VO4) was added to the cell pellet, followed by stirring for 2 seconds three times using a vortex mixer. After being allowed to stand for 10 minutes, the soluble fraction was removed by centrifugal operation (at 20000×g, for 30 minutes, at 4° C.). The obtained pellet was resuspended in 500 μl of NP40 (−) solubilized buffer, the soluble fraction was again removed by centrifugal operation (at 20000×g, for 20 minutes, at 4° C.), and the pellet was washed. The pellet was resuspended by adding 500 μl of NP40 (+) solubilized buffer (a buffer prepared by adding NP-40 to the NP40 (−) solubilized buffer at a final concentration of 1%) to the pellet, pipetting fifty times, and vortexing for 2 seconds three times. After being allowed to stand for 10 minutes, a cell membrane fraction containing a membrane protein was obtained by centrifugal operation (at 20000×g, for 40 minutes, at 4° C.). The protein concentration of the fraction was measured by DC protein assay (#500-0116 JA: Bio-Rad) and the fraction was used as a sample for kinase activity measurement. The sample was frozen with liquid nitrogen and stored at −80° C. until used for the following kinase activity measurement.
(§3) NeutrAvidin Coated Plates (HBC) (96 white plate; #15509: Pierce) were washed three times with 300 μl of TBS-T (20 mM Tris-HCl (pH 7.4)), 150 mM NaCl, 0.1% Tween), and then 100 μl of Poly-Glu4-Tyr biotin conjugate (#12440: Upstate) which had been diluted to 1 μg/ml with TBS (20 mM Tris-HCl (pH 7.4), 150 mM NaCl) was added to the wells. After shaking at 37° C. and 400 rpm for 90 minutes, the wells were washed with 300 μl of TBS-T three times and a measuring plate was obtained.
(§4) The measurement sample was diluted with a kinase buffer (20 mM HEPES (pH 7.4), 25 mM MgCl2, 1.25 mM MnCl2, 250 μM Na3VO4, 12.5 (w/v) % glycerol) so as to adjust the protein concentration to 6.25 μg/ml. The diluted measurement sample was transferred to wells of a 96 well V bottom plate. A DMSO solution (inhibitor concentration: 5 mM) containing one type of tyrosine kinase inhibitors (Inhibitors 1 to 10 shown in Table 6) was added to the wells at a ratio of 1:160 based on the diluted measurement sample solution, followed by mixing thereof. As the control, DMSO was added to the diluted measurement sample at the same ratio as the solution of the inhibitor. The used tyrosine kinase inhibitors are represented as Inhibitors 1 to 10 in Table 6.
(§5) After addition of the inhibitors, a mixed solution of the measurement sample and the inhibitor was allowed to stand at room temperature for 10 minutes. 40 μl of the mixed solution was transferred to wells of the measuring plate and 10 μl of an ATP solution (20 mM HEPES (pH 7.4), […]) as the phosphate group donor was added to the wells.
(§6) The composition of the solution in the wells is as follows: protein concentration: 5 μg/ml, 20 mM HEPES (pH 7.4), 20 mM MgCl2, 1 mM MnCl2, 200 μM Na3VO4, 10 (w/v) % glycerol, 25 μM ATP, 25 μM kinase inhibitor.
(§7) After shaking the measuring plate at 37° C. and 400 rpm for 60 minutes, the solution was removed from the measuring plate, and the wells were washed with 300 μl of TBS-T three times. 100 μl of Starting Block T20 (TBS) (#37543: Pierce) as a blocking solution was added to the wells, followed by blocking at 37° C. and 400 rpm for 10 minutes. The blocking solution was removed from the measuring plate. […]

Test [2] concerns tyrosine kinase in cell membrane fraction of BT-20. The settings on record: 25 μM kinase inhibitor, 25 μM ATP. How it is done:
as §1, §2, §3, §4, §5, §6, §7

Test [3] has as its system tyrosine kinase in cell membrane fraction of BT-549. The following applies: 25 μM kinase inhibitor, 25 μM ATP. The procedure: as §1, §2, §3, §4, §5, §6, §7
Test [4] relates to tyrosine kinase in cell membrane fraction of HCC1954. The following applies: 25 μM kinase inhibitor, 25 μM ATP. How it is done:
as §1, §2, §3, §4, §5, §6, §7

The subject of test [5] is tyrosine kinase in cell membrane fraction of HCC1419. The following applies: 25 μM kinase inhibitor, 25 μM ATP. The procedure:
as §1, §2, §3, §4, §5, §6, §7

The test system of test [6] is tyrosine kinase in cell membrane fraction of AU565. The following applies: 25 μM kinase inhibitor, 25 μM ATP. The procedure: as §1, §2, §3, §4, §5, §6, §7
Test [7] has as its system tyrosine kinase in cell membrane fraction of HCC1569. The settings on record: 25 μM kinase inhibitor, 25 μM ATP. The procedure: as §1, §2, §3, §4, §5, §6, §7
In test [8] the test system is tyrosine kinase in cell membrane fraction of HCC202. The settings on record: 25 μM kinase inhibitor, 25 μM ATP. How it is done:
as §1, §2, §3, §4, §5, §6, §7

Test [9] has as its system tyrosine kinase in cell membrane fraction of ZR-75-30. The settings on record: 25 μM kinase inhibitor, 25 μM ATP. How it is done: as §1, §2, §3, §4, §5, §6, §7
Test [10] concerns tyrosine kinase in cell membrane fraction of BT-474. The following applies: 25 μM kinase inhibitor, 25 μM ATP. The procedure:
as §1, §2, §3, §4, §5, §6, §7

In test [11] the test system is tyrosine kinase in cell membrane fraction of HCC1937. The settings on record: 25 μM kinase inhibitor, 25 μM ATP. The procedure:
as §1, §2, §3, §4, §5, §6, §7

Test [12] concerns tyrosine kinase in cell membrane fraction of MDA-MB-453. The settings on record: 25 μM kinase inhibitor, 25 μM ATP. How it is done: as §1, §2, §3, §4, §5, §6, §7
Test [13] deals with tyrosine kinase in cell membrane fraction of UACC812. The following applies: UACC812; 25 μM kinase inhibitor, 25 μM ATP. How it is done: as §1, §2, §3, §4, §5, §6, §7
For test [14], the system named is tyrosine kinase in cell membrane fraction of MDA-MB-415. The following applies: 25 μM kinase inhibitor, 25 μM ATP. The procedure:
as §1, §2, §3, §4, §5, §6, §7

The subject of test [15] is tyrosine kinase in cell membrane fraction of MDA-MB-436. The following applies: 25 μM kinase inhibitor, 25 μM ATP. The procedure:
as §1, §2, §3, §4, §5, §6, §7

For test [16], the system named is tyrosine kinase in cell membrane fraction of ZR-75-1. The following applies: 25 μM kinase inhibitor, 25 μM ATP. The procedure: as §1, §2, §3, §4, §5, §6, §7
The test system of test [17] is tyrosine kinase in cell membrane fraction of MDA-MB-157. The settings on record: 25 μM kinase inhibitor, 25 μM ATP. How it is done:
as §1, §2, §3, §4, §5, §6, §7

As to `COc1cc2ncnc(Nc3cccc(Cl)c3)c2cc1OC` [Inhibitor 1], the Inhibition rate in test [1] stood at 77.4%; in test [2], 47.2%; in test [3] it was 52.9%; in test [4] it was 39.4%; in [5], 34.9%; in [6] it was 29.3%. Besides, the Inhibition rate in test [7] came out at 44.7%; in test [8], 29.7%; in test [9], 20.1%; in test [10], 26.0%; in [11] it was 46.0%; in [12], 39.8%. Moreover, the Inhibition rate was determined as 49.3% in [13]; 41.3% in test [14]; 33.9% in test [15]; 20.8% in test [16]; 45.0% in [17].
As for `COc1cc2ncnc(Nc3ccc(OCc4ccccc4)cc3)c2cc1OC` [Inhibitor 3, 4-(4-benzyloxyanilino)-6,7-dimethoxyquinazoline], the Inhibition rate amounted to 76.9% in test [1]; 42.2% in test [2]; 59.8% in [3]; 31.8% in test [4]; 43.3% in [5]; 25.7% in [6]. For the same compound, the Inhibition rate in test [7] came out at 42.3%; in [8] it was 24.5%; in [9], 37.2%; in [10] it was 15.1%; in test [11] it was 24.1%; in test [12], 36.9%. The Inhibition rate was 66.6% in test [13]; 50.5% in test [14]; 48.7% in test [15]; 38.5% in test [16]; 38.0% in test [17].
